Source: ChEMBL document CHEMBL6074654, “Inhibitors targeting the PWWP domain-containing proteins” (Eur J Med Chem, 2024)

Columns and labels:
[1] = test system: U2OS; assay: Antiproliferative activity against human U2OS cells
[2] = biological target: Histone-lysine N-methyltransferase, H3 lysine-36 specific (Homo sapiens, UniProt Q96L73); assay: Inhibition of NSD1-SET (unknown origin)
[3] = biological target: DNA (cytosine-5)-methyltransferase 3A (Homo sapiens, UniProt Q9Y6K1); assay: Inhibition of DNMT3A (unknown origin)
Chain of DNA (cytosine-5)-methyltransferase 3A (Q9Y6K1 whole entry, looked up): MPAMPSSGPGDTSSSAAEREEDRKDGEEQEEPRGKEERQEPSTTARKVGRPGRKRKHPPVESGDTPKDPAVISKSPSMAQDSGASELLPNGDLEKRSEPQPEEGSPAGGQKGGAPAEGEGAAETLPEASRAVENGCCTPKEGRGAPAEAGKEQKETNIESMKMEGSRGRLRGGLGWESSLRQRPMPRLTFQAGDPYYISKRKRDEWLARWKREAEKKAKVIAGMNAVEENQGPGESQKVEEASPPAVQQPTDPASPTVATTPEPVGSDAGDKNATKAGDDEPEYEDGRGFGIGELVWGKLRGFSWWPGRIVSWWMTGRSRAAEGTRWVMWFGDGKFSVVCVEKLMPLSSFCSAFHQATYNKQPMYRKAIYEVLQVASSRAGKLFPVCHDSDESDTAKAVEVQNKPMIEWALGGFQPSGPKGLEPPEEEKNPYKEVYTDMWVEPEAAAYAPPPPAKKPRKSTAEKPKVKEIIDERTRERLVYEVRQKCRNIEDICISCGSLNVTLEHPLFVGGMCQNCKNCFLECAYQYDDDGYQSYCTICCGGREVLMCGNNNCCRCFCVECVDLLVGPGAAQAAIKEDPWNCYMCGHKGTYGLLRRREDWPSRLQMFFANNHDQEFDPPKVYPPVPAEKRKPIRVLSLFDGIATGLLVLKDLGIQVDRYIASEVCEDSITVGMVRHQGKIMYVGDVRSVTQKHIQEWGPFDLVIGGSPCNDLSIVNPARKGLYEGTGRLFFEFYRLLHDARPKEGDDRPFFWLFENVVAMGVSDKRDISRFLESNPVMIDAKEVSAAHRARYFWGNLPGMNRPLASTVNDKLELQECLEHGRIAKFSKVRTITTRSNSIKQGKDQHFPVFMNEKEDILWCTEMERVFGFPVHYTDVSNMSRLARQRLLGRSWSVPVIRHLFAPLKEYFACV

[4] = biological target: DNA (cytosine-5)-methyltransferase 1 (Homo sapiens, UniProt P26358); assay: Inhibition of DNMT1 (unknown origin)
Chain of DNA (cytosine-5)-methyltransferase 1 (P26358 whole entry, the tested form may be a part): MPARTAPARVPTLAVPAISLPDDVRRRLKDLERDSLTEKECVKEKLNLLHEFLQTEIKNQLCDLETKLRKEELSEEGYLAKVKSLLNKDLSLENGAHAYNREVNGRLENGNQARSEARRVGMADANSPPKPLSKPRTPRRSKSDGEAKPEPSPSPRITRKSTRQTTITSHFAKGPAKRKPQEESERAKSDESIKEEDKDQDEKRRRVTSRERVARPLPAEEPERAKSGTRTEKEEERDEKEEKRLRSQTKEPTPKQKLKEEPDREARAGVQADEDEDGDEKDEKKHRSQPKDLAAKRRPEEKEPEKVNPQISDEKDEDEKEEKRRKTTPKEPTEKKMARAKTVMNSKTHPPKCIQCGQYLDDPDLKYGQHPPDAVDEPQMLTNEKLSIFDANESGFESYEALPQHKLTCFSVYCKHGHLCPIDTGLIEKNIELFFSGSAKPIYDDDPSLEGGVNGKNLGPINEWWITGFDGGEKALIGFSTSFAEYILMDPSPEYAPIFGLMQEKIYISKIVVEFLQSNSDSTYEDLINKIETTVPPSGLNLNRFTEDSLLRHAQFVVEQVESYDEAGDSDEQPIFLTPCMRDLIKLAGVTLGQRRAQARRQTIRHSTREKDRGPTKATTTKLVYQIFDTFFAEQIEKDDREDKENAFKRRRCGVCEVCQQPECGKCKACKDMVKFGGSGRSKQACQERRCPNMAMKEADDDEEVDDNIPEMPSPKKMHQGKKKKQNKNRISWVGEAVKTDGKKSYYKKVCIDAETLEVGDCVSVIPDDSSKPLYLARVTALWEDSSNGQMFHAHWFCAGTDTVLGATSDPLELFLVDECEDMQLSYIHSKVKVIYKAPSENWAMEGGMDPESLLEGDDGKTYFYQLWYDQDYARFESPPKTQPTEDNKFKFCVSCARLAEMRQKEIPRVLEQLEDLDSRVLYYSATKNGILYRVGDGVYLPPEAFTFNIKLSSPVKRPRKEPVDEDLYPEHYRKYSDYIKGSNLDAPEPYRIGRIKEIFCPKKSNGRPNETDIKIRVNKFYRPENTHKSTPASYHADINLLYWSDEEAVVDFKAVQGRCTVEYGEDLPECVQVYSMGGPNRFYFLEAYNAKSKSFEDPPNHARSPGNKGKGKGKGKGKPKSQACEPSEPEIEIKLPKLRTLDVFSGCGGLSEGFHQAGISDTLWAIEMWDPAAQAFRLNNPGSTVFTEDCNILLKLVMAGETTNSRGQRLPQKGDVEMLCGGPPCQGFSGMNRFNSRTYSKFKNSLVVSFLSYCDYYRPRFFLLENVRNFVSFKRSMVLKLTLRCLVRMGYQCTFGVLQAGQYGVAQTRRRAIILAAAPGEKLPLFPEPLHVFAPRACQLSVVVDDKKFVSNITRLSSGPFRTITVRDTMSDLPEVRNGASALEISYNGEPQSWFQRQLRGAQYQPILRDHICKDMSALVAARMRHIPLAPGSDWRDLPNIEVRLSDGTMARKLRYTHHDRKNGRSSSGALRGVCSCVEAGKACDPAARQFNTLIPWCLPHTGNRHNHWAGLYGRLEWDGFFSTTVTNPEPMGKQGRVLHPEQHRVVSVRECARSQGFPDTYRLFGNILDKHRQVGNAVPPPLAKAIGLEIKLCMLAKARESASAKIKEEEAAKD

[5] = biological target: T1, Histone-lysine N-methyltransferase NSD2 (Homo sapiens, UniProt O96028); assay: Inhibition of NSD2-SET domain (unknown origin)
T1 sequence (O96028 whole entry): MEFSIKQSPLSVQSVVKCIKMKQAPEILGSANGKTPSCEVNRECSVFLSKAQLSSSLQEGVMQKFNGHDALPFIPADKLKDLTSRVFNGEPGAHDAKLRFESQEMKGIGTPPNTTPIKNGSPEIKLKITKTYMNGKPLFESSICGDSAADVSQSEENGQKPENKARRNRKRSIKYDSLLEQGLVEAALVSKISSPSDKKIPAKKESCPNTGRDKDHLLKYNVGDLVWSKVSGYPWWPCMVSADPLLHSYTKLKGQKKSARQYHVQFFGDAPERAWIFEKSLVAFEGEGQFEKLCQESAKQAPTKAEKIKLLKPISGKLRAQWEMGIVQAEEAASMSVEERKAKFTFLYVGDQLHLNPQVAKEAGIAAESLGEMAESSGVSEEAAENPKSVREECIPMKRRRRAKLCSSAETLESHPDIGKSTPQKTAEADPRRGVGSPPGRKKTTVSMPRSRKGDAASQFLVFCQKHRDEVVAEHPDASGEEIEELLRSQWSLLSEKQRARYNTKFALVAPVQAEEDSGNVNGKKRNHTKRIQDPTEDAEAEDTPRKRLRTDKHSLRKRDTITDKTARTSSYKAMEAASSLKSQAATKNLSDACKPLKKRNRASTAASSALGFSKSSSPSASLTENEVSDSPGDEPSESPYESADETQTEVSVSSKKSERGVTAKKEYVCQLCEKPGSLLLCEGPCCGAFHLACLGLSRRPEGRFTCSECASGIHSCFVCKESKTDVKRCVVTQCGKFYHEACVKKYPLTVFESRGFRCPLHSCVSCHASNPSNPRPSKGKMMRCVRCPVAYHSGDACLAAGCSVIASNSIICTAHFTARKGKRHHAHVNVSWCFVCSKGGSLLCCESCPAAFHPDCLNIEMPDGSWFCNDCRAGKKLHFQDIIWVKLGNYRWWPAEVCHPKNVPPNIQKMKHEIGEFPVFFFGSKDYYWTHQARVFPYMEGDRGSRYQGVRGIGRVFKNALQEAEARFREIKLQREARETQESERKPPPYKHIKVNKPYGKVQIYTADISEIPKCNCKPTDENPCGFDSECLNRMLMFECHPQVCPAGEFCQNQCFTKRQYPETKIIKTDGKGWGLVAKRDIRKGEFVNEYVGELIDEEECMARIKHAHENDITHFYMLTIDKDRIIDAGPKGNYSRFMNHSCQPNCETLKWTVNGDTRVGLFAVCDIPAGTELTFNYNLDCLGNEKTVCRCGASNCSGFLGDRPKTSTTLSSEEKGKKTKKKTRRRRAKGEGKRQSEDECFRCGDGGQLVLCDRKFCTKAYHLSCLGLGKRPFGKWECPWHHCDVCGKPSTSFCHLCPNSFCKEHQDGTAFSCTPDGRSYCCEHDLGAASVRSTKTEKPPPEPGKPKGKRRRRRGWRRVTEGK

[6] = biological target: Protein cereblon/Histone-lysine N-methyltransferase NSD2 (Homo sapiens, UniProt O96028+Q96SW2); assay: PROTAC activity at CRBN/NSD2 in human VCaP cells assessed as induction of NSD2 degradation incubated for 24 hrs by immunoblot analysis; assay type: cell-based
Chain of Protein cereblon/Histone-lysine N-methyltransferase NSD2 (Q96SW2 whole entry, one chain of several): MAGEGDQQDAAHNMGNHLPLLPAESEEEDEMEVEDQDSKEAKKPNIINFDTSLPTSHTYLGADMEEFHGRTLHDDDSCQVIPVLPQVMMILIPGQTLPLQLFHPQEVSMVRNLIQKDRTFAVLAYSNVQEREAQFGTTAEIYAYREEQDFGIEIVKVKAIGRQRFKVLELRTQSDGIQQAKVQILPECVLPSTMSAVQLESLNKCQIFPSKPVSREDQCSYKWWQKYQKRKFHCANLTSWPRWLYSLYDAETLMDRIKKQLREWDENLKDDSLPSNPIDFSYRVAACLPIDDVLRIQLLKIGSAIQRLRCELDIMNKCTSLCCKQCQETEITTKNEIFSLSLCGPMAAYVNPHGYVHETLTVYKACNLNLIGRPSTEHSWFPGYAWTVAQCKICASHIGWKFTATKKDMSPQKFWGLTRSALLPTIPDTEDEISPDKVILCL

Question: For `O=C1COc2cc(C(=O)N(Cc3ccc(C(=O)Nc4ccncn4)cc3)C3CC3)ccc2N1`, which IC50 [1] is on record?
Answer: Its IC50 is 1.2 µM.

Question: `O=C1C=CC(=O)c2ccccc21` [NAPHTHOQUINONE] was tested. Which IC50 [2] did it give?
Answer: Its IC50 is 2 µM.

Question: With `c1ccc2c(NCCNc3ncnc4cc(OCC5CCN(CCNc6ccnc7ccccc67)CC5)ccc34)cccc2c1` as the molecule, how does the IC50 [3] read?
Answer: Its IC50 is 0.3 µM.

Question: And the IC50 [4]?
Answer: The IC50 was 20 µM.

Question: Which IC50 [2] does the source give for `Cc1coc2c1C(=O)C(=O)c1c-2ccc2c(C)cccc12` [TANSHINONE I] here?
Answer: The IC50 was 3.1 µM.

Question: With `COc1ccc(Cl)cc1C(=O)NCCc1ccc(O)cc1` as the molecule, how does the IC50 [3] read?
Answer: Its IC50 is 36 µM.

Question: With `Cc1cc(/C=C/c2ccc3cc(N(C)C)ccc3[n+]2C)c(C)n1-c1ccccc1` as the molecule, how does the IC50 [2] read?
Answer: The IC50 was 2.6 µM.

Question: For `Oc1cc(/C=N/Nc2nc3ccccc3s2)cc(O)c1O`, which IC50 [3] is on record?
Answer: Its IC50 is 1.6 µM.

Question: With `COc1cc(NC(C)CCCN)c2ncccc2c1` (configuration not stated) [PRIMAQUINE] as the molecule, how does the IC50 [2] read?
Answer: The IC50 was 1.8 µM.

Question: For `CCN(CC)CCNC(=O)c1ccc(NCCCCCCCCCCCCN2C(=O)c3ccccc3C2=O)cc1`, which IC50 [3] is on record?
Answer: Its IC50 is 8.2 µM.

Question: And the IC50 [4]?
Answer: The IC50 was 4.9 µM.

Question: With `CCCN[C@@H](CC[C@H](N)C(=O)O)C[C@@H]1O[C@@H](n2cnc3c(N)ncnc32)[C@H](O)[C@@H]1O` as the molecule, how does the IC50 [5] read?
Answer: The IC50 was 3.3 µM.

Question: `CN1C[C@H](C(=O)N[C@]2(C)C[C@@]3(O)C4CCCN4C(=O)[C@H](Cc4ccccc4)N3C2=O)C=C2c3cccc4[nH]cc(c34)C[C@H]21` (some centres not stated) was tested. Which IC50 [2] did it give?
Answer: Its IC50 is 5.9 µM.

Question: `CC(C)C[C@H]1C(=O)N2CCCC2[C@]2(O)O[C@](NC(=O)[C@@H]3C=C4c5cccc6[nH]cc(c56)CC4N(C)C3)(C(C)C)C(=O)N12` (some centres not stated) was tested. Which IC50 [2] did it give?
Answer: Its IC50 is 4.9 µM.

Question: With `O=C(O)c1ccccc1-c1c2cc(I)c(=O)c(I)c-2oc2c(I)c(O)c(I)cc12` as the molecule, how does the IC50 [2] read?
Answer: The IC50 was 0.34 µM.

Question: How did the DC50 [6] turn out when `N=C(N)NCCC[C@H](N)C(=O)NCCCCCCNC(=O)c1ccc(NC(=O)c2ccc(CN(C(=O)c3ccc4c(c3)OCC(=O)N4)C3CC3)cc2)cc1` was run?
Answer: The DC50 was 1.2 µM.

Question: `O=C(O)C(Cc1c[nH]c2ccccc12)N1C(=O)C=CC1=O` (configuration not stated) was tested. Which IC50 [3] did it give?
Answer: Its IC50 is 28 µM.

Question: `C[C@H]1COC2=C1C(=O)C(=O)c1c2ccc2c1CCCC2(C)C` [CRYPTOTANSHINONE] was tested. Which IC50 [2] did it give?
Answer: Its IC50 is 3.5 µM.

Question: For `Cc1coc2c1C(=O)C(=O)c1c-2ccc2c1CCCC2(C)C` [TANSHINONE IIA], which IC50 [2] is on record?
Answer: Its IC50 is 1.4 µM.

Question: Which IC50 [3] does the source give for `O=C1C=CC(=O)N1CCc1c[nH]c2ccccc12` here?
Answer: Its IC50 is 3.2 µM.

Question: And the IC50 [4]?
Answer: Its IC50 is 19 µM.

Question: With `CC1=CC(=O)c2c(O)cccc2C1=O` [PLUMBAGIN] as the molecule, how does the IC50 [2] read?
Answer: Its IC50 is 5.7 µM.
